# Reference: patent publication US4868162A, “Antiviral agent” (Teijin Limited, priority 1985, dated 1989)
# Tests used:
# [1] = test system: herpes simplex type I virus (KOS strain); assay: Plaque reduction in herpes simplex type I infected Vero cells (Example 3, 2,000 pfu/ml); type: cell-based; details: for Therapeutic index MTD/ED50: HSV-1 KOS 2,000 pfu/ml, 2880 min; for EC50: Human alphaherpesvirus 1, HSV-1 KOS 2,000 pfu/ml, 48-hour culture, read-out: ED50 (effective dose which suppressed the formation of plaques by 50% in number)
# Protocol: (§1) Vero cells. were cultured in Eagle essential medium (MEM) containing 5% fetal calf serum (FCS) and were made to proliferate after the monolayer cell culture method. The cells were inoculated with 0.1 ml of herpes simplex type I virus (KOS strain) of 2,000 pfu/ml concentration, which were made to be adsorbed by the host cells at 37° C. for 1 hour. The virus that were not yet adsorbed were washed away with a 2% CS-MEM medium and then test compounds, inclusive of the compounds of this invention, were added to the cultures respectively in concentration of 0.01~1,000 μg/ml.
# (§2) After 48-hour culture in 2% CS-MEM medium was over, the effective dose of each test compound which suppressed the formation of plaques by 50% in number (ED50) and the minimum toxic dose (MTD) which caused the cytotoxicity were measured.
# in vitro [2] = type: cell-based, African green monkey; details: monkey, vero cells
# Protocol: as §1, §2
# in vitro [3] = type: cell-based, African green monkey; details: monkey, vero cells; remark: listed apart in the source
# Protocol: as §2, with “Vero cells were cultured in Eagle minimum 1 medium (MEM) containing 5% calf serum (CS) and were made to proliferate after the monolayer cell culture method. […] After” for “After”, “(EDs)” for “(ED50)”
# [4] = test system: herpes simplex type I virus (KOS strain); assay: Plaque reduction in herpes simplex type I infected Vero cells (Example 2, 10,000 pfu/ml); type: cell-based; details: HSV-1 KOS 10,000 pfu/ml; for EC50: Human alphaherpesvirus 1, 48-hour culture, read-out: ED50 (effective dose which suppressed the formation of plaques by 50% in number); for EC50 / Therapeutic index MTD/ED50: Vero cells; for Therapeutic index MTD/ED50: 2880 min
# Protocol: Vero cells were cultured in Eagle minimum
# 1 medium (MEM) containing 5% calf serum (CS) and were made to proliferate after the monolayer cell culture method. The cultured cells were inoculated with 0.1 ml of herpes simplex type I virus (KOS strain) of 10,000 pfu/ml concentration, which were left to be adsorbed by the host cells at 37° C. for 1 hour. The test compounds, inclusive of the compounds of this invention, were added to the cultures respectively in concentration of 0.001~1,000 μg/ml.
# After 48-hour culture in 2% CS-MEM medium was over, the effective dose of each test compound which suppressed the formation of plaques by 50% in number (EDs) and the minimum toxic dose (MTD) which caused the cytotoxicity were measured.
# [5] = Cytotoxicity, minimum toxic dose in Vero cells (Example 1); type: cell-based, African green monkey; details: monkey
# Protocol: (§3) Vero cells were cultured in Eagle minimum essential medium (MEM) containing 5% calf serum (CS) and were made to proliferate by means of monolayer cell culture. The cells were inoculated with 0.1 ml of herpes simplex type I virus (KOS strain) adjusted to 1,000 pfu/ml, which were allowed to hold on the host cells by adsorption for 1 hour at 37° C. Thereafter, the test compound, inclusive of the compounds of this invention, were added thereto respectively in concentration of 0.01~1,000 μg/ml.
# (§4) After 48-hour culture in CS-MEM medium was over, the effective dose of each test compound which suppressed the formation of plaques by 50% in number (ED50) and the minimum toxic dose (MTD) which caused the cytotoxicity were measured.
# [6] = test system: herpes simplex type I virus (KOS strain); assay: Plaque reduction in herpes simplex type I infected Vero cells (Example 1, 1,000 pfu/ml); type: cell-based; details: for Therapeutic index MTD/ED50: HSV-1 KOS 1,000 pfu/ml, 2880 min; for EC50: Human alphaherpesvirus 1, HSV-1 KOS 1,000 pfu/ml, 48-hour culture, read-out: ED50 (effective dose which suppressed the formation of plaques by 50% in number)
# Protocol: as §3, §4
EC50 [1],MCC at 48 h (in vitro [2]),MCC at 48 h (in vitro [3]),EC50 [4],EC50 [6],SMILES,Therapeutic index MTD/ED50 [1],Therapeutic index MTD/ED50 [4],Therapeutic index MTD/ED50 [6],MCC at 48 h ([5]; vero cells),other results
–,–,100 µg/mL,0.038 mg/L,–,"CCCCCCCCCC(=O)OC[C@H]1O[C@@H](n2cc(F)c(=O)[nH]c2=O)C[C@@H]1OC(=O)CCCCCCCCC [3',5'-didecanoyl-5-fluoro-2'deoxyuridine, 3',5'-didecanoyl-5-fluoro-2'-deoxyuridine]",–,"2,600",–,–,–
–,–,100 µg/mL,0.018 mg/L,–,"CCCCCCCC(=O)OC[C@H]1O[C@@H](n2cc(F)c(=O)[nH]c2=O)C[C@@H]1OC(=O)CCCCCCC [3',5'-dioctanoyl-5-fluoro-2'-deoxyuridine]",–,"5,600",–,–,effective dose relative to that of Acyclovir for the same effect ([4]; fraction of Acyclovir effective dose): about 1/400
0.285 mg/L,10 µg/mL,–,–,–,"CCCCCCCC(=O)OC[C@H]1O[C@@H](n2cc(I)c(=O)[nH]c2=O)C[C@@H]1OC(=O)CCCCCCC [3',5'-dioctanoyl-5-iodo-2'-deoxyuridine]",35,–,–,–,–
3.36 mg/L,1000 µg/mL,1000 µg/mL,7.26 mg/L,0.991 mg/L,"Nc1nc2c(ncn2COCCO)c(=O)[nH]1 [9-(2-hydroxyethoxymethyl)guanine, reference compound]",279,140,"1,000",1000 µg/mL,–

# Further lines, the molecule ahead of its results:
SMILES,EC50 [1],MCC at 48 h (in vitro [2]),MCC at 48 h (in vitro [3]),EC50 [4],EC50 [6],Therapeutic index MTD/ED50 [1],Therapeutic index MTD/ED50 [4],Therapeutic index MTD/ED50 [6],MCC at 48 h ([5]; vero cells),other results
"O=C(OC[C@H]1O[C@@H](n2cc(F)c(=O)[nH]c2=O)C[C@@H]1OC(=O)c1ccccc1)c1ccccc1 [3',5'-dibenzoyl-5-fluoro-2'-deoxyuridine]",0.112 mg/L,100 µg/mL,–,–,–,893,–,–,–,–
"O=c1[nH]c(=O)n([C@H]2C[C@H](O)[C@@H](CO)O2)cc1F [5-fluoro-2'-deoxyuridine, reference compound]",–,–,–,–,0.01 mg/L,–,–,10,–,"MCC at 48 h ([5]; Vero cells, Example 1, 48-hour culture, read-out: MTD (minimum toxic dose which caused the cytotoxicity)): 0.1 µg/mL"
"CCCCCCCCCCCC(=O)OC[C@H]1O[C@@H](n2cc(F)c(=O)[nH]c2=O)C[C@@H]1OC(=O)CCCCCCCCCCC [3',5'-didodecanoyl-5-fluoro-2'-deoxyuridine]",–,–,–,–,0.054 mg/L,–,–,"1,900",100 µg/mL,–
"CCCCCCCCCCCCCCCC(=O)OC[C@H]1O[C@@H](n2cc(F)c(=O)[nH]c2=O)C[C@@H]1OC(=O)CCCCCCCCCCCCCCC [3',5'-dihexadecanoyl-5-fluoro-2'-deoxyuridine]",–,–,–,–,0.077 mg/L,–,–,"2,000",150 µg/mL,–
"CCCCCCCCCCCCCC(=O)OC[C@H]1O[C@@H](n2cc(F)c(=O)[nH]c2=O)C[C@@H]1OC(=O)CCCCCCCCCCCCC [3',5'-ditetradecanoyl-5-fluoro-2'-deoxyuridine]",–,–,–,–,0.049 mg/L,–,–,"2,000",100 µg/mL,–
